`N#Cc1ccc(Cl)c(Cl)c1` showed a lipophilicity (logP) of 2.98. To `COc1ccc(C(C#N)C(C)C)cc1` (configuration not stated) belongs 2.68; to `CCOc1ccc(C#N)cc1`, 2.03.

For `CCOc1cc(C#N)ccc1O`, the logP came to 1.36. To `CC(C)C(C#N)c1ccc([N+](=O)[O-])cc1` (configuration not stated) belongs 2.63; to `COc1ccc(C#N)cc1Br`, 2.35; to `COc1cc(C#N)ccc1O`, 0.82. To `COc1ccc(C#N)cc1OC` belongs 1.42; to `CCOc1ccc(C#N)cc1Br`, 2.99; to `CCOc1ccc(C#N)cc1OC`, 2.06.

For the compound `COc1ccc(C#N)cc1[N+](=O)[O-]`, the log partition coefficient (logP) was 1.23. The figure for `CCOc1ccc(C#N)cc1[N+](=O)[O-]` is 1.77; for `N#Cc1cccc([N+](=O)[O-])c1` it is 1.3. The figure for `CC(C)C(C#N)c1ccccc1` (configuration not stated) is 2.89.

`N#Cc1ccc(Br)cc1`: the log partition coefficient (logP) turned out to be 2.42. To `N#Cc1ccc(O)c(Br)c1` belongs 1.75; to `COc1ccc(C#N)cc1`, 1.49.

For the origin of these results see the SangsterLogP compilation.
